PMC6635953 (Journal of medicinal chemistry, 2019)
Values belong to the compound of their own block, whether it stands above or below them.

What was measured:
HpMTAN = target: T1, HpMTAN (Helicobacter pylori, UniProt Q9ZMY2); test: Inhibition assay of HpMTAN; type: biochemical; details: for preference for HpMTAN (specificity ratio Kd Hs/Hp): affinity for human MTAP relative to HpMTAN; for binding to the catalytic site of HpMTAN: at concentrations of 5 μM inhibitor
T1 sequence (Q9ZMY2 1-230): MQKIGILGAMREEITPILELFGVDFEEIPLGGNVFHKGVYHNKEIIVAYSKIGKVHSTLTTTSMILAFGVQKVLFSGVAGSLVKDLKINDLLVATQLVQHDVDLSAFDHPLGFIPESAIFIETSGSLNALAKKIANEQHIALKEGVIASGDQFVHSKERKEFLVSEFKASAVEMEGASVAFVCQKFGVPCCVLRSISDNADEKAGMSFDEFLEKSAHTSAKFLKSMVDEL

human MTAP = target: T2, human MTAP (Homo sapiens, UniProt Q13126); test: Inhibition assay of MTAP; type: biochemical; details: for binding to the catalytic site of MTAP: at concentrations of 5 μM inhibitor
T2 sequence (Q13126 1-283): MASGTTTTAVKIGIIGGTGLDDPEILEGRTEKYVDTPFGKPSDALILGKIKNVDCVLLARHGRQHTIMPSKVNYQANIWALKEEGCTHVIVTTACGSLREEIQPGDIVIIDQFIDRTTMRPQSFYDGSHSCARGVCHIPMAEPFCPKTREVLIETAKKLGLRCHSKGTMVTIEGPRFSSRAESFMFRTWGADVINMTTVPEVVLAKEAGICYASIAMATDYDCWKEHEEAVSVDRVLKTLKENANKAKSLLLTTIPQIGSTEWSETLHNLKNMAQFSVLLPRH

Compound: CSC[C@H]1CN(Cc2c[nH]c3c(N)nccc23)C[C@@H]1O [compound 8, 3-deazaMTDIA]
increase of dissociation constant relative to MTDIA (1), HpMTAN (HpMTAN; compared with 1 (86 pM)): > 100 fold
increase of dissociation constant relative to MTDIA (1), MTAP (human MTAP; compared with 1 (86 pM)): > 100 fold

Compound: O=c1[nH]ccc2c(CN3C[C@H](CO)[C@@H](O)C3)c[nH]c12 [compound 34]
binding to the catalytic site of HpMTAN (HpMTAN): eliminates binding
binding to the catalytic site of MTAP (human MTAP): eliminates binding

Compound: CSC[C@H]1CN(Cc2c[nH]c3c(=O)[nH]ccc23)C[C@@H]1O [compound 35]
binding to the catalytic site of HpMTAN (HpMTAN): eliminates binding
binding to the catalytic site of MTAP (human MTAP): eliminates binding

More lines, now with the values ahead:

Kd (HpMTAN): 0.026 to 0.055 nM
preference for HpMTAN (specificity ratio Kd Hs/Hp) (HpMTAN): 12- to 36 fold
Compound: C#CCSC[C@H]1CN(Cc2c[nH]c3c(N)ncnc23)C[C@@H]1O [compound 15]

Kd (HpMTAN): 0.026 to 0.055 nM
preference for HpMTAN (specificity ratio Kd Hs/Hp) (HpMTAN): 12- to 36 fold
Compound: C#CCCCSC[C@H]1CN(Cc2c[nH]c3c(N)ncnc23)C[C@@H]1O [compound 16]

Kd (HpMTAN): 0.026 to 0.055 nM
Compound: CCCCn1cc(CCCSC[C@H]2CN(Cc3c[nH]c4c(N)ncnc34)C[C@@H]2O)nn1 [compound 30]

Kd (HpMTAN): 0.026 to 0.055 nM
Compound: Nc1ncnc2c(CN3C[C@H](CSCCCc4cn(Cc5ccccc5)nn4)[C@@H](O)C3)c[nH]c12 [compound 32]
